What was measured:
Test in all cases: relative viability (nuclei count vs DMSO), 5 days (fraction); higher = more cells survive
[1] = compound: CC(C)C[C@H](NC(=O)[C@H](Cc1ccccc1)NC(=O)c1cnccn1)B(O)O [Bortezomib] + CC1(C)CCC(c2ccc(Cl)cc2)=C(CN2CCN(c3ccc(C(=O)NS(=O)(=O)c4ccc(N[C@H](CCN5CCOCC5)CSc5ccccc5)c(S(=O)(=O)C(F)(F)F)c4)cc3)CC2)C1 [Navitoclax] (partner 0.5 µM)
How it was run: (§1)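 Relative viability equals treated-well nuclei counts divided by vehicle-well nuclei counts. Counts came from 4× images of lung cancer cell lines grown in 1536-well plates for 5 days after pin-tool dosing on the day after seeding. Dosing used one drug alone or a fixed anchor-drug dose plus five library-drug doses (not always all listed) in √10 steps, and values are medians of duplicate plates.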

[2] = compound: CC(C)C[C@H](NC(=O)[C@H](Cc1ccccc1)NC(=O)c1cnccn1)B(O)O [Bortezomib] + N=C(N)NC(=N)NCCc1ccccc1 [Phenformin] (partner 250 µM)
How it was run: as §1

[3] = compound: COC1=CC(c2cc3ccccc3[nH]2)=N/C1=C\c1[nH]c(C)cc1C [Obatoclax] + CC(=O)c1c(C)c2cnc(Nc3ccc(N4CCNCC4)cn3)nc2n(C2CCCC2)c1=O [Palbociclib] (partner 0.5 µM)
How it was run: as §1

[4] = compound: COC1=CC(c2cc3ccccc3[nH]2)=N/C1=C\c1[nH]c(C)cc1C [Obatoclax] + Nc1nc2[nH]cc(CCc3ccc(C(=O)N[C@@H](CCC(=O)O)C(=O)O)cc3)c2c(=O)[nH]1 [Pemetrexed] (partner 0.2 µM)
How it was run: as §1

Cell Line | relative viability ([1]; first compound 0.0002 µM) | relative viability ([1]; first compound 0.000632 µM) | relative viability ([1]; first compound 0.002 µM) | relative viability ([1]; first compound 0.006325 µM) | relative viability ([1]; first compound 0.02 µM) | relative viability ([2]; first compound 0.0002 µM) | relative viability ([2]; first compound 0.000632 µM) | relative viability ([2]; first compound 0.002 µM) | relative viability ([2]; first compound 0.006325 µM) | relative viability ([2]; first compound 0.02 µM) | relative viability ([3]; first compound 0.01 µM) | relative viability ([3]; first compound 0.03162 µM) | relative viability ([3]; first compound 0.1 µM) | relative viability ([3]; first compound 0.3162 µM) | relative viability ([3]; first compound 1 µM) | relative viability ([4]; first compound 0.01 µM) | relative viability ([4]; first compound 0.03162 µM) | relative viability ([4]; first compound 0.1 µM) | relative viability ([4]; first compound 0.3162 µM) | relative viability ([4]; first compound 1 µM)
A-427 | 0.91 | 1.01 | 0.963 | 0.988 | 0.112 | 0.253 | 0.246 | 0.339 | 0.212 | 0.11 | 0.54 | 0.511 | 0.419 | 0.517 | 0.462 | 0.95 | 0.965 | 0.74 | 0.909 | 0.75
UMC-11 | 0.288 | 0.281 | 0.315 | 0.12 | 0.101 | 0.371 | 0.313 | 0.333 | 0.292 | 0.236 | 0.373 | 0.346 | 0.33 | 0.322 | 0.373 | 0.768 | 0.808 | 0.82 | 0.795 | 0.433
LU99A | 0.824 |  | 0.945 | 0.384 | 0.132 | 0.789 | 0.782 | 0.898 | 0.85 | 0.328 | 0.426 | 0.377 |  | 0.402 | 0.4 | 0.16 | 0.172 |  | 0.183 | 0.18
NCI-H2009 | 1.16 | 1.1 | 1.15 | 0.0798 | 0.0607 | 0.512 | 0.479 | 0.492 | 0.113 | 0.0828 | 0.215 | 0.224 | 0.194 | 0.188 | 0.123 | 0.978 | 1.05 | 0.974 | 0.993 | 0.471

— the supplement of paper PMC10307832
